# Results: patent US20250262188A1, “Methods of Increasing the Plasma Drug Exposure of Anticancer Agents” (Scandion Oncology A/S, priority 2021, published 2025)
# What was measured:
# UGT1A1 = target: T1, UGT1A1 (Homo sapiens, UniProt P22309); assay: In vitro UGT1A1 inhibition, recombinant human enzyme assays (Example 5); assay type: biochemical
# T1 sequence (P22309 26-533): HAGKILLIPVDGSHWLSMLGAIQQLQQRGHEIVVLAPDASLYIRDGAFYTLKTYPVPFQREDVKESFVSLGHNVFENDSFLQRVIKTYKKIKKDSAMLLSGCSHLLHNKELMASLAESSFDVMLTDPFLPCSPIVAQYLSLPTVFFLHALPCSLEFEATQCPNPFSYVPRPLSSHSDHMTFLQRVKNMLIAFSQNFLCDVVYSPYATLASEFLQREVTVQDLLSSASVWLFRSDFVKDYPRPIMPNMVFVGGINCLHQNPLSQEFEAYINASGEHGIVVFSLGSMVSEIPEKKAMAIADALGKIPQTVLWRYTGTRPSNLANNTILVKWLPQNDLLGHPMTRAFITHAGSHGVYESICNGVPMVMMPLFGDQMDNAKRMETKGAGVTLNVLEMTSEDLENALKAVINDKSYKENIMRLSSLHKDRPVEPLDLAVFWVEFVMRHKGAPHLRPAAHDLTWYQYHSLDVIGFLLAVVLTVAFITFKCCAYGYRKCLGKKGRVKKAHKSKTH
# Source text: The term “UGT1A1 inhibitor” as used herein refers to a molecule which is capable of binding to human uridine diphosphate (UDP)-glycuronosyl transferase (UGT1A1), particularly in humans or animals and decrease the enzymatic activity of the UGT1A1. […] Whether or not a particular molecule is an UGT1A1 inhibitor can be determined by examining the molecule's IC50 in vitro in a UGT1A1 inhibition assays known in the art.
# The inhibition of UGT1A1 was investigated by recombinant human enzyme assays.
# ABCG2 [1] = target: T2, ABCG2 (Homo sapiens, UniProt Q9UNQ0); assay: Flux assays (dye-flux, bi-directional flux, 3H-SN38 accumulation, vesicular uptake) in colon cancer cells (Example 4); assay type: cell-based; settings: parental and SN38-resistant HT29 and LoVo cells
# T2 construct: endogenous in cells; host or cells: HT29 and LoVo, parental and SN38-resistant
# T2 sequence (Q9UNQ0 1-655): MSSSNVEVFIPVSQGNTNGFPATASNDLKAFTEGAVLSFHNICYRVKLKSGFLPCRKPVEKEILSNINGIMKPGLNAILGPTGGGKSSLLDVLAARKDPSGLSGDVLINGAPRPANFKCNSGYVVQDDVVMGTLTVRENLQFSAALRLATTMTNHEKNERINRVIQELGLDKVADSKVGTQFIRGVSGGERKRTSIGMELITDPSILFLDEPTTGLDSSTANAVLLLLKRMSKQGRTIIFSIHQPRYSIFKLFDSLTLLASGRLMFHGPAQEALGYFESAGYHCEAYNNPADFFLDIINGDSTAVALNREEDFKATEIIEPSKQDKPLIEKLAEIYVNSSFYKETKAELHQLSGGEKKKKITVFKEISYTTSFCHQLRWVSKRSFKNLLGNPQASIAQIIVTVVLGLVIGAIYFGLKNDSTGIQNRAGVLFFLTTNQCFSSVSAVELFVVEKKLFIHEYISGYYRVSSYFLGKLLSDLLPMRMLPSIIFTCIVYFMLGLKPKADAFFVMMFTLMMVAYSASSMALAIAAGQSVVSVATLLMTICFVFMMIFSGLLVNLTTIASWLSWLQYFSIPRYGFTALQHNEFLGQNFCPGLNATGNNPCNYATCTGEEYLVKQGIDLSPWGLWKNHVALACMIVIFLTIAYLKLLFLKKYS
# Source text: (§1) Pairs of parental (sensitive) and SN38-resistant human colon cancer cell lines (HT29 and LoVo) were used. ABCG2 overexpression and effects of SCO-101 on ABCG2 was investigated by western blot, qPCR, dye-flux assays, bi-directional flux assays, 3H-SN38 accumulation assays and vesicular uptake assays. The effect of SCO-101 on SN38 re-sensitization was investigated by cell viability assays (MTT/PrestoBlue) and clonogenic assays.
# ABCG2 [2] = target: T2, ABCG2; assay: Protein analysis of ABCG2 (western blot) in colon cancer cells (Example 4); assay type: cell-based
# Source text: as §1
# BCRP = target: T3, BCRP (Homo sapiens, UniProt Q9UNQ0); assay: 3H-SN-38 uptake in HT29 SN-38 resistant cell monolayers (Example 6); assay type: cell-based
# T3 construct: endogenous in cells; host or cells: HT29 parental and HT29 SN38-resistant colorectal cancer cells
# T3 sequence (Q9UNQ0 1-655): T2 sequence (Q9UNQ0 1-655)
# Procedure: All treatments were investigated in three technical replicates (N=3). On the day of experimentation, the culture media was exchanged with 100 μL transport buffer (HBSS, 0.05% BSA, 10 mM HEPES, pH 7.4) and cells were incubated for 15 minutes at 37° C.
# Subsequently, the blank transport buffer was exchanged with 50 μL transport buffer containing the different compounds (in 2x of the final concentration) to be tested and incubated for 15 minutes at 37° C. The uptake experiment was started by adding 50 μL of ^3H-SN38 at a concentration of 2 μCi/mL to all wells (the resulting concentration of ^3H-SN38 during the experiment was 1 μCi/mL). The uptake experiment was stopped after 15 minutes of incubation at 37° C. by removing the transport buffer from all wells.
# The cell monolayers were subsequently washed twice by adding/removing ice-cold transport buffer twice and finally the cell monolayers were lysed by incubation in 100 μl of 0.1% TritonX-100 for 15 minutes at ambient temperature. Cell lysates were transferred to scintillation vials containing 2 mL of scintillation fluid (Ultima Gold, PerkinElmer). Each well was washed with 2×100 μL purified water (milliQ), which was also transferred to respective scintillation vials.
smiles,measurement,setting,value
O=C(Nc1cc(C(F)(F)F)cc(C(F)(F)F)c1)Nc1ccc(Br)cc1-c1nnn[nH]1 [SCO-101],IC50,UGT1A1; read-out: IC50 towards UGT1A1,~0.1 µM
same,UGT1A1 inhibition (in words),UGT1A1; recombinant human enzyme,potent inhibitor of UGT1A1
same,Effect on the activity of ABCG2 in flux assays,ABCG2 [1],inhibited the activity of ABCG2
same,Effect on ABCG2 protein,ABCG2 [2],causes degradation of ABCG2
same,"Uptake of SN-38 in the presence vs absence of SCO-101, all seeded cell densities","BCRP; 25 μM SCO-101, HT29 SN-38 resistant",increased uptake
same,Uptake of SN-38 relative to blank HBSS transport buffer control,"BCRP; 25 μM test compound, HT29 SN-38 resistant, ANOVA α=0.05",significantly increased
same,EC50,"BCRP; HT29 SN-38 res cell monolayers, read-out: Estimated EC50-value for increase in uptake of SN-38",9.8 µM
same,Uptake of SN-38 with increasing concentrations of SCO-101,"BCRP; SCO-101 100 to 0.5 μM, HT29 SN-38 resistant",concentration-dependent increase
